Molecules are shown by their SMILES.

In general, AC50 refers to the concentration giving half of the maximal activity seen. Lower therefore signals greater potency.

The experiment deals with T1, POLγA:R309C (Homo sapiens, UniProt P54098, R309C).
T1 sequence (P54098 1-1239 R309C): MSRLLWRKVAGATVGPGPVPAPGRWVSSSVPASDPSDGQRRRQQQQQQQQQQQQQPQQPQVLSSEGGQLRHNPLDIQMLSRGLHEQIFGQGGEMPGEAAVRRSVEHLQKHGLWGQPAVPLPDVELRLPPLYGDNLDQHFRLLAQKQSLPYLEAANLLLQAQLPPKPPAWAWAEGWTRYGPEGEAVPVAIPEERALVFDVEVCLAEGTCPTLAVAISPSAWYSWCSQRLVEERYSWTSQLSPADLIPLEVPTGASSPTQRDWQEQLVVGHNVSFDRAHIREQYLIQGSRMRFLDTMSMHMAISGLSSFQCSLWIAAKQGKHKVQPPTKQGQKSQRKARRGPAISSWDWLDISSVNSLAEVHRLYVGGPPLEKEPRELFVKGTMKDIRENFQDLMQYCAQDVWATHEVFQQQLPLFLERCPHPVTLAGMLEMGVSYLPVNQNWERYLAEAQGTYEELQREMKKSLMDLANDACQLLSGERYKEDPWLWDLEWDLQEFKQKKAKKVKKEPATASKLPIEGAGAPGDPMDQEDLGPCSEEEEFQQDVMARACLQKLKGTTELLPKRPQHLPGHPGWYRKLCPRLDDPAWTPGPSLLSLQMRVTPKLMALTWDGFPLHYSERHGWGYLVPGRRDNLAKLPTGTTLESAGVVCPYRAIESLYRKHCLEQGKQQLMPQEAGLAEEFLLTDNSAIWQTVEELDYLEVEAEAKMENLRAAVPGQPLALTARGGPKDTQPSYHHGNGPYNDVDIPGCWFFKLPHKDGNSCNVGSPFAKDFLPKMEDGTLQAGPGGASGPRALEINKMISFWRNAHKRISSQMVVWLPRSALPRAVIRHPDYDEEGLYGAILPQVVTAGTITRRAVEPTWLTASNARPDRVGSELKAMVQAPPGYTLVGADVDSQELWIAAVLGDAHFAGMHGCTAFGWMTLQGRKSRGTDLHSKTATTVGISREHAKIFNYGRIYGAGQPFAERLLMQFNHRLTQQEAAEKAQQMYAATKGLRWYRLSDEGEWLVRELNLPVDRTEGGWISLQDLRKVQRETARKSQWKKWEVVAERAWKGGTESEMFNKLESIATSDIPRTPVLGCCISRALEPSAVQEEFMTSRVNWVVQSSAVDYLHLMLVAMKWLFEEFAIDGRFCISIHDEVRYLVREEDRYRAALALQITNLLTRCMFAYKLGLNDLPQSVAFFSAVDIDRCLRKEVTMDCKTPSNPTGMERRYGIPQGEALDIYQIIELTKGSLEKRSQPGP
T1 sequence (Q9UHN1 1-485 partner): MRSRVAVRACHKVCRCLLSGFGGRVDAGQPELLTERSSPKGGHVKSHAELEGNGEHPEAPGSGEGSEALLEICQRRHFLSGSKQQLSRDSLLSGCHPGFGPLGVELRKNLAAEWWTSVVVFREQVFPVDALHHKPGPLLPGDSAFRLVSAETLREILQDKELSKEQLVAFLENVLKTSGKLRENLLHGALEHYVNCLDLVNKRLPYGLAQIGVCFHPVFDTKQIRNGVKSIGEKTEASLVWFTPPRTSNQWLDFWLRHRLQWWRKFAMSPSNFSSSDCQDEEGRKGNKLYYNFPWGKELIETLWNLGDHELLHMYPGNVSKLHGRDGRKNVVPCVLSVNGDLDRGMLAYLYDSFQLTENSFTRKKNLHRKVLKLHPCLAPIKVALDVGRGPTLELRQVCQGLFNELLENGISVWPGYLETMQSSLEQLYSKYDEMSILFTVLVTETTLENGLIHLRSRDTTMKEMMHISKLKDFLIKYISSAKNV
Briefly: DNA polymerization assay, POLγA:R309C mutant. The format is biochemical. As to conditions: stimulation of polymerase activity, primed M13mp18 ssDNA, 37° C. 2 hours. Here is the method:
DNA Polymerization Assay to Monitor Effects on Human Wildtype POLγ and Four Disease-Causing Mutant Variants of Human POLγ.
The ability of small molecules to stimulate the polymerase activity of POLγ was analyzed in a quantitative fluorescence SYBR Green I assay with fluorescence intensity (FI) readout.
In the presence of dNTPs, wild type human POLγ and mutant derivatives thereof were incubated with single-stranded, circular M13mp18 ssDNA hybridized to a short DNA oligonucleotide that functions as a primer for initiation of DNA synthesis. POLγ and mutant derivatives thereof will extend the primer and use the M13mp18 molecule as a template to synthesize long stretches of double-stranded DNA. SYBR Green I, which is a double-stranded DNA-binding dye, was used to quantify formation of double-stranded DNA in the reaction. When bound to double-stranded DNA, SYBR Green I fluorescence increases by up to 100-fold.
The assay was performed in the 384-well plate format. Upon addition of compounds, changes in double-stranded DNA synthesis activity can be monitored by following effects on fluorescent intensity.
The reactions also contained the accessory POLγB subunit, and the human mitochondrial single-stranded DNA binding protein (mtSSB).
The DNA template mixture used in the assay contained 0.5 nM primed M13 mp18 ssDNA, 400 nM mtSSB, 0.1 mM Tris-HCl (pH 8.0), 0.1 mM dNTP, 10 mM MgCl2, 0.1 mg/mL BSA, 1 mM TCEP solution, and 0.02% Triton X-100. The DNA template mixture for the wild type protein contained either 100 μM dNTP, 1 μM dNTP, or 0.1 μM dNTP, designated in Table 2 as 100 μM, 1 μM, and 0.1 μM, respectfully.
Microplates with compounds (0.1 μL in each well) to be tested in the assay were prepared from 10 mM compound stocks in 100% DMSO, and equal amounts of DMSO without any compound were added to positive and negative control wells.
The protein mixture was dispensed (5 μL into each well) into compound plates and incubated at 37° C. for 15 minutes. After incubation, 5 μL of the DNA template mixture was dispensed into each well. The plates were then incubated at 37° C. for 2 hours.
During incubation, a combined stop buffer and detection reagent solution was prepared. The buffer contained 25 mM EDTA (pH 8.0), 0.02% Triton X-100, and SYBR Green I [Invitrogen] diluted 10,000× (for fluorescent readout). EDTA will stop the enzymatic reaction by chelating magnesium ions.
`Cc1csc(-c2cccc(NS(=O)(=O)c3cc(C)c(Cl)cc3C)c2)n1` [Example 20, 4-chloro-2,5-dimethyl-N-(3-(4-methylthiazol-2-yl)phenyl)benzenesulfonamide] returned an AC50 of 1 µM.

Compound `Cc1cnc(-c2cccc(NS(=O)(=O)c3cc(C)c(Cl)cc3C)c2)s1` [Example 21, 4-chloro-2,5-dimethyl-N-(3-(5-methylthiazol-2-yl)phenyl)benzenesulfonamide] returned an AC50 of 1 µM.

The compound `Cc1ccc(C)c(S(=O)(=O)Nc2cccc(-c3nccs3)c2)c1` [Example 60] came in with a concentration at half-maximal activity (AC50) of 0.9 µM.

On to `Cc1cc(S(=O)(=O)Nc2cccc(-c3cc(C4CC4)[nH]n3)c2)c(C)cc1Cl` [Example 64, 4-chloro-N-(3-(5-cyclopropyl-1H-pyrazol-3-yl)phenyl)-2,5-dimethylbenzenesulfonamide], for which the AC50 stood at 1 µM. This AC50 and that of the compound before are within 1.5-fold of each other.

In turn, `CC[C@@H]1CCCN1C(=O)c1cccc(NS(=O)(=O)c2cc(C)c(Cl)cc2C)c1` [Example 65, (R)-4-chloro-N-(3-(2-ethylpyrrolidine-1-carbonyl)phenyl)-2,5-dimethylbenzenesulfonamide] had a concentration at half-maximal activity (AC50) of 5 µM. This AC50 lies about 5-fold higher than the previous one.

`Cc1cc(-c2cccc(NS(=O)(=O)c3cc(C)c(Cl)cc3C)c2)n[nH]1` [Example 66, 4-chloro-2,5-dimethyl-N-(3-(5-methyl-1H-pyrazol-3-yl)phenyl)benzenesulfonamide] returned an AC50 of 12 µM.

Compound `Cc1cc(S(=O)(=O)Nc2cccc(-c3cc[nH]n3)c2)c(C)cc1Cl` [Example 68, N-(3-(1H-pyrazol-3-yl)phenyl)-4-chloro-2,5-dimethylbenzenesulfonamide] showed an AC50 of 7 µM. Compared with the last compound, the AC50 is about 1.7-fold lower.

On to `Cc1cc(S(=O)(=O)Nc2ccc3ccn(C(C)C)c3c2)c(C)cc1Cl` [Example 69, 4-chloro-N-(1-isopropyl-1H-indol-6-yl)-2,5-dimethylbenzenesulfonamide], for which the activity was half-maximal at 1 µM (AC50).

Compound `Cc1nc2ccc(NS(=O)(=O)c3cc(C)c(Cl)cc3C)cc2o1` [Example 70, 4-chloro-2,5-dimethyl-N-(2-methylbenzo[d]oxazol-6-yl)benzenesulfonamide] yielded a concentration at half-maximal activity (AC50) of 51 µM.

`Cc1cc2cc(NS(=O)(=O)c3cc(C)c(Cl)cc3C)ccc2[nH]1` [Example 184, 4-chloro-2,5-dimethyl-N-(2-methyl-1H-indol-5-yl)benzenesulfonamide] yielded a concentration at half-maximal activity (AC50) of 8 µM.

(Values after patent US20260138961A1, “MODULATORS OF MITOCHONDRIAL DNA REPLICATION” (Pretzel Therapeutics, Inc., priority 2022, published 2026).)
